Assay type in all cases: cell-based, Escherichia coli
One assay concerns E. coli TEM-30. The following applies: for Interoretation: E. coli TEM-30; for Interpretation: VITEK 2 AST card. The protocol:
(§1) Beta-lactamase clinical samples were collected from University Hospitals Leuven and tested for ESBL production using the disk diffusion method. The beta-lactamase reference isolates were purchased from International Health Management Associates (IHMA). Bacterial strains were cultivated in Mueller–Hinton Broth (MHB, Difco) at 37 °C. Whenever required, growth media were supplemented with appropriate antibiotics to the medium or plates (kanamycin 30 µg/mL, L-arabinose 0.5 mg/mL, and IPTG […]). Escherichia coli BL21 (ThermoFisher Scientific, Belgium) was used for cloning and plasmid amplification. For the selection of antibiotic resistant colonies, E. coli carrying plasmids was grown in LB agar plates supplemented with the relevant antibiotic. Bacterial CFU counting was done on blood agar plates (BD Biosciences, Belgium) or MHA agar plates. Species identification and antibiograms for all clinical isolates were performed using MALDI-Tof and VITEK® 2 automated system (BioMérieux, France).
(§2) Khodaparast et al Supplementary data
(§3) study. […] Abbreviations: S,
(§4) susceptible; I, intermediate; R, resistant.

Another assay relates to E. coli NDM5a. As to the kind of experiment: VITEK 2 AST antimicrobial susceptibility testing. To be noted: for Interoretation: E. coli NDM5a; for Interpretation: VITEK 2 AST card. The protocol:
as §1, §2, §3, §4

For the next assay, the system named is E. coli NDM5b. Nature of the assay: VITEK 2 AST antimicrobial susceptibility testing. The following applies: for Interoretation: E. coli NDM5b; for Interpretation: VITEK 2 AST card. The protocol: as §1, §2, §3, §4
The next assay deals with E. coli SHV1 (APHA). As to the kind of experiment: VITEK 2 AST antimicrobial susceptibility testing. To be noted: for Interoretation: E. coli SHV154; for Interpretation: VITEK 2 AST card. The protocol:
as §1, §2, §3, §4

A further assay concerns E. coli TEM-104. Nature of the assay: VITEK 2 AST antimicrobial susceptibility testing. The following applies: for Interoretation: E. coli TEM-104; for Interpretation: VITEK 2 AST card. The protocol: as §1, §2, §3, §4
The test system of a further assay is E. coli TEM-148. As to the kind of experiment: VITEK 2 AST antimicrobial susceptibility testing. To be noted: for Interoretation: E. coli TEM-148; for Interpretation: VITEK 2 AST card. The protocol: as §1, §2, §3, §4
The subject of the next assay is E. coli TEM-16. As to the kind of experiment: VITEK 2 AST antimicrobial susceptibility testing. The following applies: for Interoretation: E. coli TEM-16; for Interpretation: VITEK 2 AST card. The protocol:
as §1, §2, §3, §4

In another assay the test system is E. coli TEM-206. Nature of the assay: VITEK 2 AST antimicrobial susceptibility testing. The following applies: for Interoretation: E. coli TEM-206; for Interpretation: VITEK 2 AST card. The protocol: as §1, §2, §3, §4

On to `CO/N=C(\C(=O)N[C@@H]1C(=O)N2C(C(=O)O)=C(COC(C)=O)CS[C@H]12)c1csc(N)n1` [Cefotaxime], for which the Interoretation entry with E. coli TEM-30 is on record as “R”; with E. coli NDM5a, “R”; in the assay on E. coli NDM5b, “R”; with E. coli SHV1 (APHA), “R”; in the assay with E. coli TEM-104, “S”; with E. coli TEM-148, “R”. Also, the Interoretation result with E. coli TEM-16 and in the assay with E. coli TEM-206 was “R” throughout. The Interpretation entry in the assay with E. coli TEM-30 is listed as “R”; in the assay with E. coli NDM5a, “R”; with E. coli NDM5b it was “R”; with E. coli SHV1 (APHA) it was “R”; in the assay with E. coli TEM-104, “S”; in the assay on E. coli TEM-148, “R”. The Interpretation result in the assay on E. coli TEM-16 and with E. coli TEM-206 was “R” in each case.
Turning to `CNC(C)C1CCC(N)C(OC2C(N)CC(N)C(OC3OCC(C)(O)C(NC)C3O)C2O)O1` (centres unmarked) [Gentamicin], the Interoretation result in the assay on E. coli TEM-30 is “R”; with E. coli NDM5a, “R”; in the assay on E. coli NDM5b it was “S”; in the assay with E. coli SHV1 (APHA), “R”; in the assay on E. coli TEM-104, “S”; with E. coli TEM-148, “S”. For the same compound, the Interoretation entry with E. coli TEM-16 and in the assay on E. coli TEM-206 was “S” in each case. Also, the Interpretation result is on record as “R” in the assay with E. coli TEM-30; “R” in the assay on E. coli NDM5a; “S” in the assay with E. coli NDM5b; “R” in the assay with E. coli SHV1 (APHA); “S” in the assay on E. coli TEM-104; “S” in the assay with E. coli TEM-148. Further, the Interpretation result with E. coli TEM-16 and in the assay with E. coli TEM-206 was “S” in each case.
In the case of `CO[C@@]1(NC(=O)Cc2cccs2)C(=O)N2C(C(=O)O)=C(COC(N)=O)CS[C@@H]21` [Cefoxitin], the Interoretation entry with E. coli TEM-30 is listed as “S”; with E. coli NDM5a, “R”; with E. coli NDM5b, “R”; in the assay with E. coli SHV1 (APHA), “R”; in the assay with E. coli TEM-104 it was “S”; with E. coli TEM-148, “S”. Besides, the Interoretation entry in the assay on E. coli TEM-16 and in the assay with E. coli TEM-206 was “S” in each case. The Interpretation result in the assay with E. coli TEM-30 is recorded as “S”; with E. coli NDM5a it was “R”; with E. coli NDM5b, “R”; in the assay on E. coli SHV1 (APHA) it was “R”; in the assay with E. coli TEM-104, “S”; in the assay with E. coli TEM-148 it was “S”. The Interpretation entry in the assay on E. coli TEM-16 and with E. coli TEM-206 was “S” throughout.
Turning to `CN(C)c1cc(NC(=O)CNC(C)(C)C)c(O)c2c1C[C@H]1C[C@H]3[C@H](N(C)C)C(O)=C(C(N)=O)C(=O)[C@@]3(O)C(O)=C1C2=O` [Tigecycline], the Interoretation result is “I” in the assay with E. coli TEM-30; “S” with E. coli NDM5a; “S” with E. coli NDM5b; “S” in the assay on E. coli SHV1 (APHA); “S” with E. coli TEM-104; “S” in the assay with E. coli TEM-148. The Interoretation result in the assay on E. coli TEM-16 and in the assay with E. coli TEM-206 was “S” in each case. Further, the Interpretation entry with E. coli TEM-30 was “I”; with E. coli NDM5a, “S”; in the assay with E. coli NDM5b, “S”; in the assay with E. coli SHV1 (APHA), “S”; with E. coli TEM-104, “S”; with E. coli TEM-148, “S”. Moreover, the Interpretation entry in the assay with E. coli TEM-16 and with E. coli TEM-206 was “S” throughout.
As to `CO[C@@]1(NC(=O)C(C(=O)O)c2ccsc2)C(=O)N2[C@@H](C(=O)O)C(C)(C)S[C@@H]21` (some centres unmarked) [Temocillin], the Interoretation entry in the assay on E. coli TEM-30 is “S”; in the assay with E. coli SHV1 (APHA), “R”; in the assay with E. coli TEM-104, “S”; in the assay on E. coli TEM-148, “S”; in the assay with E. coli TEM-206 it was “S”. Besides, the Interpretation result in the assay with E. coli TEM-30 is “S”; with E. coli NDM5a it was “R”; in the assay with E. coli NDM5b it was “R”; in the assay on E. coli SHV1 (APHA), “R”; in the assay with E. coli TEM-104, “S”; with E. coli TEM-148 it was “S”. The values for the Interpretation entry with E. coli TEM-16 and in the assay with E. coli TEM-206 were “R” and “S”, respectively.
Turning to `CO/N=C(\C(=O)N[C@@H]1C(=O)N2C(C(=O)O)=C(COC(N)=O)CS[C@H]12)c1ccco1` [Cefuroxime], the Interoretation result in the assay on E. coli TEM-30 is “R”; in the assay with E. coli NDM5a, “R”; with E. coli NDM5b, “R”; with E. coli SHV1 (APHA), “R”; in the assay on E. coli TEM-104, “S”; in the assay with E. coli TEM-148, “R”. The Interoretation entry with E. coli TEM-16 and in the assay with E. coli TEM-206 was “R” in each case. The Interpretation entry in the assay on E. coli TEM-30 is given as “R”; in the assay with E. coli NDM5a, “R”; with E. coli NDM5b it was “R”; with E. coli SHV1 (APHA), “R”; in the assay with E. coli TEM-104 it was “S”; with E. coli TEM-148, “R”. Besides, the Interpretation entry with E. coli TEM-16 and in the assay on E. coli TEM-206 was “R” in each case.
With Trimethoprim/sulfamethoxazole, the Interoretation result with E. coli TEM-30 is recorded as “S”; in the assay on E. coli NDM5a it was “S”; with E. coli NDM5b, “R”; in the assay with E. coli SHV1 (APHA), “R”; with E. coli TEM-104, “S”; in the assay on E. coli TEM-148, “R”. For the same compound, the figures for the Interoretation result with E. coli TEM-16 and in the assay on E. coli TEM-206 were “S” and “R”, respectively. Moreover, the Interpretation entry in the assay with E. coli TEM-30 was “S”; with E. coli NDM5a it was “S”; with E. coli NDM5b, “R”; in the assay on E. coli SHV1 (APHA) it was “R”; in the assay with E. coli TEM-104, “S”; in the assay on E. coli TEM-148, “R”. In addition, the figures for the Interpretation result with E. coli TEM-16 and in the assay on E. coli TEM-206 were “S” and “R”, respectively.
`C=CC1=C(C(=O)O)N2C(=O)[C@@H](NC(=O)/C(=N\OCC(=O)O)c3csc(N)n3)[C@H]2SC1` [Cefixime]: the Interoretation result with E. coli TEM-30 is recorded as “*I”; in the assay with E. coli NDM5a, “R”; in the assay on E. coli NDM5b it was “R”; in the assay on E. coli SHV1 (APHA), “R”; in the assay on E. coli TEM-104, “S”; in the assay with E. coli TEM-148, “*I”. Moreover, the Interoretation entry with E. coli TEM-16 and in the assay on E. coli TEM-206 was “R” each time. Further, the Interpretation entry is “*I” with E. coli TEM-30; “R” with E. coli NDM5a; “R” in the assay with E. coli NDM5b; “R” in the assay on E. coli SHV1 (APHA); “S” in the assay with E. coli TEM-104; “*I” with E. coli TEM-148. Further, the Interpretation result with E. coli TEM-16 and with E. coli TEM-206 was “R” each time.
As to `C[C@H]1COc2c(N3CCN(C)CC3)c(F)cc3c(=O)c(C(=O)O)cn1c23` [Levofloxacin], the Interoretation result was “R” with E. coli TEM-30; “R” with E. coli NDM5a; “R” in the assay on E. coli NDM5b; “S” with E. coli SHV1 (APHA); “S” in the assay with E. coli TEM-104; “S” in the assay with E. coli TEM-148. Moreover, the figures for the Interoretation entry in the assay on E. coli TEM-16 and in the assay on E. coli TEM-206 were “S” and “R”, respectively. Moreover, the Interpretation entry is on record as “R” in the assay on E. coli TEM-30; “R” in the assay with E. coli NDM5a; “R” in the assay with E. coli NDM5b; “S” in the assay with E. coli SHV1 (APHA); “S” with E. coli TEM-104; “S” in the assay on E. coli TEM-148. For the same compound, the Interpretation entry was “S” in the assay with E. coli TEM-16 and “R” in the assay with E. coli TEM-206.
`CO/N=C(\C(=O)N[C@@H]1C(=O)N2C(C(=O)OC(C)OC(C)=O)=C(COC(N)=O)CS[C@H]12)c1ccco1` (some centres unmarked) [Cefuroxime Axetil]: the Interoretation entry in the assay on E. coli TEM-30 is reported as “R”; in the assay with E. coli NDM5a, “R”; with E. coli NDM5b, “R”; in the assay on E. coli SHV1 (APHA), “R”; with E. coli TEM-104, “S”; in the assay with E. coli TEM-148 it was “R”. Besides, the Interoretation result with E. coli TEM-16 and in the assay on E. coli TEM-206 was “R” throughout. Also, the Interpretation result with E. coli TEM-30 is on record as “R”; in the assay with E. coli NDM5a, “R”; with E. coli NDM5b, “R”; in the assay on E. coli SHV1 (APHA) it was “R”; with E. coli TEM-104, “S”; in the assay with E. coli TEM-148 it was “R”. Besides, the Interpretation entry in the assay with E. coli TEM-16 and with E. coli TEM-206 was “R” throughout.
Regarding `CC(C)(O/N=C(\C(=O)N[C@@H]1C(=O)N2C(C(=O)[O-])=C(C[n+]3ccccc3)CS[C@H]12)c1csc(N)n1)C(=O)O` [Ceftazidime], the Interoretation result was “*I” in the assay on E. coli TEM-30; “R” with E. coli NDM5a; “R” in the assay with E. coli NDM5b; “R” with E. coli SHV1 (APHA); “S” in the assay with E. coli TEM-104; “*I” in the assay with E. coli TEM-148. The Interoretation result in the assay on E. coli TEM-16 and in the assay with E. coli TEM-206 was “R” each time. Besides, the Interpretation result in the assay on E. coli TEM-30 was “*I”; with E. coli NDM5a, “R”; with E. coli NDM5b it was “R”; in the assay with E. coli SHV1 (APHA) it was “R”; with E. coli TEM-104 it was “S”; in the assay on E. coli TEM-148 it was “*I”. The Interpretation entry with E. coli TEM-16 and in the assay on E. coli TEM-206 was “R” each time.

Source of the values: publication PMC10492782, “Exploiting the aggregation propensity of beta-lactamases to design inhibitors that induce enzyme misfolding” (Nature Communications, 2023).
